Assay results as given in patent publication US5188830A, “Methods for thrombolytic therapy” (Merck & Co., Inc., priority 1990, dated 1993).

Test system: blood clots
Assay: in vitro clot lysis assay (release of solubilized 125I-fibrin-derived fragments, lysis initiated by TPA)
Description: In the assay, whole blood or plasma is charged with ^125 I-fibrinogen. Thrombin is added to initiate clot formation and subsequently incubated for 2 hours to complete the cross-linking by endogenous Factor XIII. Factor XIIIa inhibitor is added prior to clot initiation or at various times during the 2-hour incubation. At the end of this period, the labelled clot is washed and lysis is initiated by exogenous tissue plasminogen activator (TPA). Exogenous plasminogen is employed in some experiments. Endogenous plasminogen is used for others. Clot dissolution as a function of time is monitored by the release of solubilized ^125 I-fibrin-derived fragments.
In FIGS. 1 and 2, the open symbols indicate absence of cerulenin and the closed symbols indicate the presence of 200 μM cerulenin at the time of clot formation. Clot lysis is conducted in buffer, pH 7.5; 5 ng/mL TPA represents approximate physiologic concentration. 50 to […] represents pharmacologic concentration range. […] FIG. 2 studies employed glu-plasminogen levels at approximately 10 percent physiologic level (12 μ/mL).

## C/C=C/C/C=C/CCC(=O)[C@H]1O[C@H]1C(N)=O [Cerulenin, 3-(1-oxo-4,7-nonadienyl)-oxiranecarboxamide]
200 μM cerulenin at clot formation, no exogenous plasminogen, TPA at physiological and pharmacological levels, buffer pH 7.5 (FIG. 1)
  rates and extents of clot lysis: enhanced rates and extents of lysis
200 μM cerulenin, 12 μg/mL exogenous glu-plasminogen, TPA, buffer pH 7.5 (FIG. 2)
  rate of TPA catalyzed clot lysis: lysis rates were further enhanced
